Data taken from patent US20250287947A1, “BIOCIDES AND ADHESIVE BINDING THEREOF” (EBERHARD KARLS UNIVERSITÄT TÜBINGEN MEDIZINISCHE FAKULTÄT, priority 2022, published 2025).
In brackets after ≈: the same amount, converted by molar mass.

Key:
[1] = Interactions between salt concentration, temperature and pH on the state of matter of Py-C12 (Example 3); format: physicochemical; set-up: key: X: liquid; o: solid; settings: 5% w/v
Experimental: […] The samples were combined with NaCl solutions using concentrations between 0 and 3 M in water and subsequently incubated at temperatures between 24° C. and 45° C.

[2] = Influence of temperature on the state of matter of Py-C12 free base at different concentrations in water (Example 4); format: physicochemical; set-up: key: X: liquid; o: solid
Experimental: 5-N-carboxamido-2-pyrrolidone-N-n-dodecyl propane-1,3-diamine (Py-C12) free base at concentrations of 1% (w/v), 2.5% (w/V), 5% (w/V), 10% (w/V), 20% (w/), 30% (W/), 40% (w/V) were incubated at temperatures between 36° C. and 50° C. (see table 4).

[3] = tested on: β-galactosidase-expressing E. coli strain; assay: Wash resistance and biocidal activity of Py-C12 treated silk fabric (Example 17); format: cell-based; settings: treated with 1% (w/v) free base; washed 10, 20 and 30 times with water 15 min; E. coli 3 days at 37° C.
Experimental: In a first step, 1% (w/v) Py-C12 free base in water was warmed to 50° C. to obtain a liquid solution. After incubation with the Py-C12 solution, the samples were cooled to room temperature upon which the liquid Py-C12 was converted into a solid phase and thus immobilized to the material. After drying, samples were washed with water at room temperature 10, 20, and 30 times for 15 minutes each time. Thereafter, all samples were inoculated with a β-galactosidase-expressing E. coli strain and then incubated for 3 days at 37° C.

[4] = tested on: β-galactosidase-expressing E. coli strain; assay: Wash resistance and biocidal activity of Py-C12 treated cotton fabric (Example 18); format: cell-based; settings: treated with 1% (w/v) free base, E. coli 3 days at 37° C.
Experimental: In a first step, 1% (w/v) Py-C12 free base in water was warmed to 50° C. to obtain a liquid solution. After incubation with the Py-C12 solution, the samples were cooled to room temperature upon which the liquid Py-C12 was converted into a solid phase and thus immobilized to the material. After drying, samples were washed with water at room temperature 10 and 30 times for 15 minutes each time. Thereafter, all samples were inoculated with a β-galactosidase-expressing E. coli strain and then incubated for 3 days at 37° C.

[5] = tested on: β-galactosidase-expressing E. coli strain; assay: Wash resistance and biocidal activity of Py-C12 treated beech wood sheets (Example 19); format: cell-based; settings: treated with 1% (w/v) free base; washed with water up to 30 washing steps, 15 min each; E. coli 4 days at 37° C.
Experimental: In a first step, 1% (w/v) Py-C12 free base in water) was warmed to 50° C. to obtain a liquid solution. After incubation of beech wood sheets with the Py-C12 solution, the samples were cooled to room temperature upon which the liquid Py-C12 was converted into a solid phase and thus immobilized to the material. After drying, samples were washed with water at room temperature […] for 15 minutes each time. Thereafter, all samples were inoculated with a β-galactosidase-expressing E. coli strain and then incubated for 4 days at 37° C.

[6] = free base; i.e. 0.0033% (w/v) at ph 9.5; cited from earlier work

Question: What does the source list for `CCCCCCCCCCCCNCCCNC(=O)C1CCC(=O)N1` (stereo not drawn) [Py-C12, 5-N-carboxamido-2-pyrrolidone-N′-n-dodecyl propane-1,3-diamine]?
Answer: state of matter ([1]; pH 4.0, 28° C., 0.5M NaCl): X; state of matter ([1]; pH 4.0, 28° C., 1.0M NaCl): X; state of matter ([1]; pH 4.0, 28° C., 1.5M NaCl): X; state of matter ([1]; pH 4.0, 28° C., 2.0M NaCl): X; state of matter ([1]; pH 4.0, 28° C., 2.5M NaCl): o; state of matter ([1]; pH 4.0, 28° C., 3.0M NaCl): o; state of matter ([1]; pH 4.0, 28° C., no NaCl): X; state of matter ([1]; pH 9.0, 24 °C, 0.5M NaCl): o; state of matter ([1]; pH 9.0, 24 °C, 1.0M NaCl): o; state of matter ([1]; pH 9.0, 24 °C, 1.5M NaCl): o; state of matter ([1]; pH 9.0, 24 °C, 2.0M NaCl): o; state of matter ([1]; pH 9.0, 24 °C, 2.5M NaCl): o; state of matter ([1]; pH 9.0, 24 °C, 3.0M NaCl): o; state of matter ([1]; pH 9.0, 24 °C, no NaCl): o; state of matter ([2]; free base 1% (w/v) in water, 36° C.): o; state of matter ([2]; free base 1% (w/v) in water, 38° C.): o; state of matter ([2]; free base 1% (w/v) in water, 40° C.): X; state of matter ([2]; free base 1% (w/v) in water, 42° C.): X; state of matter ([2]; free base 1% (w/v) in water, 44° C.): X; state of matter ([2]; free base 1% (w/v) in water, 46° C.): X; state of matter ([2]; free base 1% (w/v) in water, 48° C.): X; state of matter ([2]; free base 1% (w/v) in water, 50° C.): X; state of matter ([2]; free base 2.5% (w/v) in water, 36° C.): o; state of matter ([2]; free base 2.5% (w/v) in water, 38° C.): o; state of matter ([2]; free base 2.5% (w/v) in water, 40° C.): X; state of matter ([2]; free base 2.5% (w/v) in water, 42° C.): X; state of matter ([2]; free base 2.5% (w/v) in water, 44° C.): X; state of matter ([2]; free base 2.5% (w/v) in water, 46° C.): X; state of matter ([2]; free base 2.5% (w/v) in water, 48° C.): X; state of matter ([2]; free base 2.5% (w/v) in water, 50° C.): X; state of matter ([2]; free base 5% (w/v) in water, 36° C.): o; state of matter ([2]; free base 5% (w/v) in water, 38° C.): o; state of matter ([2]; free base 5% (w/v) in water, 40° C.): X; state of matter ([2]; free base 5% (w/v) in water, 42° C.): X; state of matter ([2]; free base 5% (w/v) in water, 44° C.): X; state of matter ([2]; free base 5% (w/v) in water, 46° C.): X; state of matter ([2]; free base 5% (w/v) in water, 48° C.): X; state of matter ([2]; free base 5% (w/v) in water, 50° C.): X; state of matter ([2]; free base 10% (w/v) in water, 36° C.): o; state of matter ([2]; free base 10% (w/v) in water, 38° C.): o; state of matter ([2]; free base 10% (w/v) in water, 40° C.): X; state of matter ([2]; free base 10% (w/v) in water, 42° C.): X; state of matter ([2]; free base 10% (w/v) in water, 44° C.): X; state of matter ([2]; free base 10% (w/v) in water, 46° C.): X; state of matter ([2]; free base 10% (w/v) in water, 48° C.): X; state of matter ([2]; free base 10% (w/v) in water, 50° C.): X; state of matter ([2]; free base 20% (w/v) in water, 36° C.): o; state of matter ([2]; free base 20% (w/v) in water, 38° C.): o; state of matter ([2]; free base 20% (w/v) in water, 40° C.): o; state of matter ([2]; free base 20% (w/v) in water, 42° C.): o; state of matter ([2]; free base 20% (w/v) in water, 44° C.): X; state of matter ([2]; free base 20% (w/v) in water, 46° C.): X; state of matter ([2]; free base 20% (w/v) in water, 48° C.): X; state of matter ([2]; free base 20% (w/v) in water, 50° C.): X; state of matter ([2]; free base 30% (w/v) in water, 36° C.): o; state of matter ([2]; free base 30% (w/v) in water, 38° C.): o; state of matter ([2]; free base 30% (w/v) in water, 40° C.): o; state of matter ([2]; free base 30% (w/v) in water, 42° C.): o; state of matter ([2]; free base 30% (w/v) in water, 44° C.): X; state of matter ([2]; free base 30% (w/v) in water, 46° C.): X; state of matter ([2]; free base 30% (w/v) in water, 48° C.): X; state of matter ([2]; free base 30% (w/v) in water, 50° C.): X; state of matter ([2]; free base 40% (w/v) in water, 36° C.): o; state of matter ([2]; free base 40% (w/v) in water, 38° C.): o; state of matter ([2]; free base 40% (w/v) in water, 40° C.): o; state of matter ([2]; free base 40% (w/v) in water, 42° C.): o; state of matter ([2]; free base 40% (w/v) in water, 44° C.): X; state of matter ([2]; free base 40% (w/v) in water, 46° C.): X; state of matter ([2]; free base 40% (w/v) in water, 48° C.): X; state of matter ([2]; free base 40% (w/v) in water, 50° C.): X; bacterial growth on treated silk fabric after washing [3]: Blue coloured bacteria only appear in control sample; bacterial growth on treated cotton fabric after washing ([4]; washed 10 times with water 15 min): doesn't show any bacterial growth; bacterial growth on treated cotton fabric after washing ([4]; washed 30 times with water 15 min): few spots; bacterial growth on treated beech wood sheets after washing [5]: Blue coloured bacteria only appear on control sample; solubility in water [6]: 33 µg/mL (≈ 93.3 µM)
